According to patent publication US20040192782A1, “Erucamide compounds for the treatment and prevention to disturbances of the secretory system” (priority 2001, published 2004):

Columns and labels:
[1] = tested on: cholera toxin induced diarrhea in the jejunum of the rat; settings: in vivo
[2] = tested on: transport of Na+ from plasma to CSF; assay: CSF production measured as 22Na+ transport from plasma to CSF after intraventricular administration; assay type: in vivo, rat; settings: 5 μl/min, 300 g rats under halothan, 22Na+ i.v. 30 min after erucamide
Source text: Effect of erucamide and analogues thereof on CSF production Production of CSF depends mainly on active transport of Na^+ from the blood to the brain ventricles (Davson and Segal, 1970). Water then follows the net transport of Na^+ and other ions to maintain osmotic balance. Therefore, formation of CSF is directly proportional to Na^+ transport into the ventricular cavities. A simple technique to measure CSF production is to determine the turnover of plasma Na^+ into CSF. The method involves maintenance of a steady state level of ^22Na^+ in plasma and sampling ^22Na^+ in the CSF at various times after injection of the isotope (Knuckey et al., 1991). […] A 2-3 mm long micro-dialysis tubing, connecting 2 polyethylene tubings, was permanently placed in the cisterna magna for sampling of CSF. […] Blood samples were taken from the tail veins at 15, 30, 90 and 180 min. Blood and CSF samples were analyzed for radioactivity. Intraventricularly administered erucamide reduced by over 40% the transport of Na^+ from plasma to CSF.

CSF production = settings: in vivo; cited from earlier work

CCCCCCCC/C=C\CCCCCCCCCCCC(=O)O [Erucic acid, cis-13-docosenoic acid, reference compound]
Antisecretory activity in the rat intestine model (in words) [1]: does not display any antisecretory activity

CCCCCCCC/C=C\CCCCCCCCCCCC(N)=O [erucamide, cis-13-docosenoamide]
Dose giving maximal antisecretory activity, expressed as concentration [1]: 0.3 pM
Dose giving maximal antisecretory activity ([1]; iv): 1×10^−10 g/kg/dose
Maximal antisecretory activity (inhibition of cholera toxin induced diarrhea) ([1]; iv): 75 % inhibition
Reduction of transport of Na+ from plasma to CSF [2]: over 40%

CCCCC/C=C\C/C=C\C/C=C\C/C=C\CCCC(=O)O [Arachidonic acid, reference compound]
Antisecretory activity relative to erucamide activity [1]: less than 20 % of the erucamide activity

CC(=O)Nc1nnc(S(N)(=O)=O)s1 [aztzoiamide]
Inhibition of CSF production (CSF production): 50%
